This is an account of results in US9452986B2, “6-heteroaryloxy- or 6-aryloxy-quinoline-2-carboxamides and method of use” (AbbVie Inc., priority 2014, dated 2016).

The term IC50 denotes the midpoint of a concentration-inhibition curve.

recombinant human Nav1.7, sequence (Q15858 whole entry): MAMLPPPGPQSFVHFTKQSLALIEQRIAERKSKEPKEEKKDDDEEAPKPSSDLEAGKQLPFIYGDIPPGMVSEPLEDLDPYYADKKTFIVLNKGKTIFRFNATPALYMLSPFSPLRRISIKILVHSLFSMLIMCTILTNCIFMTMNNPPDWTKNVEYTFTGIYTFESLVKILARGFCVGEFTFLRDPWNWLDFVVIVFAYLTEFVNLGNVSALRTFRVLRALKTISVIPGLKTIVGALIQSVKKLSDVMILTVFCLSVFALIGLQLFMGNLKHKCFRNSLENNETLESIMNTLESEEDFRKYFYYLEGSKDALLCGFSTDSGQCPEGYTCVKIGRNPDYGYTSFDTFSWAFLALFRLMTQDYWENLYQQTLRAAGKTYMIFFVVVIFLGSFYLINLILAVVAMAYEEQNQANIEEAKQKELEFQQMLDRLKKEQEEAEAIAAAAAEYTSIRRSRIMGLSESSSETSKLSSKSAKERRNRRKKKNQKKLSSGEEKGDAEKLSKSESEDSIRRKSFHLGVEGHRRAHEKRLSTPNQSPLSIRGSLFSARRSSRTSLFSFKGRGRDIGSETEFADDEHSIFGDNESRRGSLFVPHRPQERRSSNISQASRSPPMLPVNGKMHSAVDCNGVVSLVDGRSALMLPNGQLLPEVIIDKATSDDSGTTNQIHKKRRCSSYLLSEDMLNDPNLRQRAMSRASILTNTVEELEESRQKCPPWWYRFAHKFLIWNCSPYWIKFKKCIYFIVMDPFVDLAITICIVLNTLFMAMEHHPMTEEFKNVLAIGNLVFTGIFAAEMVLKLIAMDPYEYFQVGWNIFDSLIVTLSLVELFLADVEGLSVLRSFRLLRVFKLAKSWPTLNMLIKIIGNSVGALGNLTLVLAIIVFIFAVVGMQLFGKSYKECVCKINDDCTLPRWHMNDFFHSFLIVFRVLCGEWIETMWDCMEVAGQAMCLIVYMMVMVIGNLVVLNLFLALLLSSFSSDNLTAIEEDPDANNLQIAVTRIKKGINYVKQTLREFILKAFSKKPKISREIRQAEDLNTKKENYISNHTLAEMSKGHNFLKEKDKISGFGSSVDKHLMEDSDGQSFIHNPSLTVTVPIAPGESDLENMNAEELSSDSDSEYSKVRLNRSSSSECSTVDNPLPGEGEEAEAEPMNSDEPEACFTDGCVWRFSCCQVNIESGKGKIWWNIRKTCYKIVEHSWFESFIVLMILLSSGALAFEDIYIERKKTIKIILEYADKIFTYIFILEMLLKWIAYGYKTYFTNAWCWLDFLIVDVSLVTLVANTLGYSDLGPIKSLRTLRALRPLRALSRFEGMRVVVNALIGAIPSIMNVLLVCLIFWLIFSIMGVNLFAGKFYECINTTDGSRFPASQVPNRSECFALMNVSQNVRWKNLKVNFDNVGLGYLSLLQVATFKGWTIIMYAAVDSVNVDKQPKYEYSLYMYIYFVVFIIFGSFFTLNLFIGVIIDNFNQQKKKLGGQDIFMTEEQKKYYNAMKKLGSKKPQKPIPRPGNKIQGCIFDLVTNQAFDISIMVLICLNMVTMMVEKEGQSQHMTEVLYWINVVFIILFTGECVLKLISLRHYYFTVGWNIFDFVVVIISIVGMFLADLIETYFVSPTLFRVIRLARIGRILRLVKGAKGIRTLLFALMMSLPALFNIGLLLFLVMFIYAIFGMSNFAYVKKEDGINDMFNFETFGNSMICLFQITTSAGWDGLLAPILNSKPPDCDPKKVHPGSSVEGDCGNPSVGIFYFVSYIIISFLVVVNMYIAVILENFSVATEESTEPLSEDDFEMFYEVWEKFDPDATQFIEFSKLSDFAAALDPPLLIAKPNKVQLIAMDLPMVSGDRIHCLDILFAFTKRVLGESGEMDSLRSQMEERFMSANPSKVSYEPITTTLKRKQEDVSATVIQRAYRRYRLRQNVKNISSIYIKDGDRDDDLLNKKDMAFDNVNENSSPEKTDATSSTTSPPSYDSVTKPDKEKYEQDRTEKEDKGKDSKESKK

The target of the first experiment is recombinant human Nav1.7 (Homo sapiens (Human), UniProt Q15858). The experiment can be described thus: FRET-based membrane potential assay, recombinant human sodium channel Nav1.7. It is filed as cell-based. Particulars: HEK293 cells stably expressing recombinant human Nav1.7; veratridine + scorpion venom depolarization; read-out: FRET-Membrane Potential Nav1.7 IC50. The procedure:
FRET-Based Membrane Potential Assays.
Recombinant, Human Sodium Channel, Nav1.7.
On the day of the assay, medium was removed by aspiration, and cells were washed with assay buffer [HBSS (Invitrogen, Carlsbad, Calif.) containing 20 mM HEPES (Invitrogen, Carlsbad, Calif.)]. […] Cells were incubated for 40 minutes at room temperature in the dark. […] The cells were incubated for 90 minutes at room temperature in the dark. Fluorescence readings were made using a FLIPR®^TETRA (Molecular Devices, Sunnyvale Calif.) equipped with voltage-sensor probe optics. At the start of each experiment the optimal (EC80) concentration of depolarizing agent (veratridine) was determined by testing a dilution curve of assay buffer containing veratridine (Sigma-Aldrich, St. Louis, Mo.) and 1 mg/mL scorpion venom (SVqq, from Leiurus quinquestriatus; Sigma-Aldrich, St. Louis, Mo.). […] Test compounds in the daughter plate were diluted to (˜3×) solutions in assay buffer immediately before assaying. Using the FLIPR®^TETRA, 20 μL of the (3×) compound solutions were first added to the cells, then 20 μL of depolarizing solution (3×EC80 veratridine+SVqq) were added 3 minutes later to activate the channel. […] IC50 values were calculated from curve fits of the ratio data using a four-parameter logistic Hill equation (Accelrys Assay Explorer 3.3 Client, Accelrys, San Diego, Calif.) with percent inhibition plotted against compound concentration.
Consider `N#Cc1ccc(Oc2ccc3nc(C(=O)NCc4ccncc4)ccc3c2)cc1` [Example 98, 6-(4-cyanophenoxy)-N-(pyridin-4-ylmethyl)quinoline-2-carboxamide], for which the IC50 turned out to be 885 nM. On to `Cc1ccc(CNC(=O)c2ccc3cc(Oc4ccc(C#N)cc4)ccc3n2)o1` [Example 99, 6-(4-cyanophenoxy)-N-[(5-methyl-2-furyl)methyl]quinoline-2-carboxamide], for which the IC50 came out at 5050 nM. `N#Cc1ccc(Oc2ccc3nc(C(=O)NCCCN4CCCCC4)ccc3c2)cc1` [Example 100, 6-(4-cyanophenoxy)-N-[3-(piperidin-1-yl)propyl]quinoline-2-carboxamide]: the IC50 came out at 221 nM. Still for that read-out and setting: the same measure for `N#Cc1ccc(Oc2ccc3nc(C(=O)NCc4cccc(OC(F)(F)F)c4)ccc3c2)cc1` [Example 102, 6-(4-cyanophenoxy)-N-[3-(trifluoromethoxy)benzyl]quinoline-2-carboxamide]: more than 20000 nM. Take `Cc1ccc(CNC(=O)c2ccc3cc(Oc4ccc(C#N)cc4)ccc3n2)cc1` [Example 103, 6-(4-cyanophenoxy)-N-(4-methylbenzyl)quinoline-2-carboxamide]: the IC50 is more than 20000 nM.

For `N#Cc1ccc(Oc2ccc3nc(C(=O)NCc4ccc5c(c4)OCO5)ccc3c2)cc1` [Example 104, N-(1,3-benzodioxol-5-ylmethyl)-6-(4-cyanophenoxy)quinoline-2-carboxamide], the IC50 was more than 20000 nM.

In the case of `COc1cccc(CNC(=O)c2ccc3cc(Oc4ccc(C#N)cc4)ccc3n2)c1OC` [Example 105, 6-(4-cyanophenoxy)-N-(2,3-dimethoxybenzyl)quinoline-2-carboxamide], the IC50 came out at 7250 nM. Consider `N#Cc1ccc(Oc2ccc3nc(C(=O)N4CCCCCC4)ccc3c2)cc1` [Example 106, 4-{[2-(azepan-1-ylcarbonyl)quinolin-6-yl]oxy}benzonitrile], for which the IC50 stood at 2420 nM. As for `CCCN(CCOC)C(=O)c1ccc2cc(Oc3ccc(C#N)cc3)ccc2n1` [Example 107, 6-(4-cyanophenoxy)-N-(2-methoxyethyl)-N-propylquinoline-2-carboxamide], the IC50 turned out to be 4120 nM. On to `CCOCCNC(=O)c1ccc2cc(Oc3ccc(C#N)cc3)ccc2n1` [Example 108, 6-(4-cyanophenoxy)-N-(2-ethoxyethyl)quinoline-2-carboxamide], for which the IC50 turned out to be 2410 nM. Take `N#Cc1ccc(Oc2ccc3nc(C(=O)NC4CCN(Cc5ccccc5)C4)ccc3c2)cc1` (centres unmarked) [Example 109, N-(1-benzylpyrrolidin-3-yl)-6-(4-cyanophenoxy)quinoline-2-carboxamide]: the IC50 turned out to be 660 nM. For `N#Cc1ccc(Oc2ccc3nc(C(=O)N4CCCC(C(F)(F)F)C4)ccc3c2)cc1` (centres unmarked) [Example 110, 4-[(2-{[3-(trifluoromethyl)piperidin-1-yl]carbonyl}quinolin-6-yl)oxy]benzonitrile], the IC50 is 1960 nM. Take `N#Cc1ccc(Oc2ccc3nc(C(=O)N[C@@H]4CCOC4=O)ccc3c2)cc1` [Example 113, 6-(4-cyanophenoxy)-N-[(3R)-2-oxotetrahydrofuran-3-yl]quinoline-2-carboxamide]: the IC50 turned out to be 741 nM. Same read-out and setting: the result for `CS(=O)(=O)NC(=O)c1ccc2cc(Oc3ccc(C#N)cc3)ccc2n1` [Example 115, 6-(4-cyanophenoxy)-N-(methylsulfonyl)quinoline-2-carboxamide] reads 11200 nM; that for `N#Cc1ccc(Oc2ccc3nc(C(=O)NC4CCCOC4)ccc3c2)cc1` (centres unmarked) [Example 116, 6-(4-cyanophenoxy)-N-(tetrahydro-2H-pyran-3-yl)quinoline-2-carboxamide], 1030 nM. In the case of `CC(C)(O)CNC(=O)c1ccc2cc(Oc3ccc(C#N)cc3)ccc2n1` [Example 122, 6-(4-cyanophenoxy)-N-(2-hydroxy-2-methylpropyl)quinoline-2-carboxamide], the IC50 came out at 2490 nM.

Regarding `N#Cc1ccc(Oc2ccc3nc(C(=O)N[C@H]4CC[C@H](O)CC4)ccc3c2)cc1` [Example 125, 6-(4-cyanophenoxy)-N-(trans-4-hydroxycyclohexyl)quinoline-2-carboxamide], the IC50 is 3460 nM. The same measure, in the same setting: the same measure for `N#Cc1ccc(Oc2ccc3nc(C(=O)NC(CO)CO)ccc3c2)cc1` [Example 126, 6-(4-cyanophenoxy)-N-(1,3-dihydroxypropan-2-yl)quinoline-2-carboxamide]: 8760 nM.

On to `N#Cc1ccc(Oc2ccc3nc(C(=O)N[C@H]4CCC[C@@H](O)C4)ccc3c2)cc1` [Example 129, 6-(4-cyanophenoxy)-N-[(1S,3R)-3-hydroxycyclohexyl]quinoline-2-carboxamide], for which the IC50 was 2580 nM. Take `N#Cc1ccc(Oc2ccc3nc(C(=O)N[C@H]4CC[C@@H](O)C4)ccc3c2)cc1` [Example 130, 6-(4-cyanophenoxy)-N-[(1S,3R)-3-hydroxycyclopentyl]quinoline-2-carboxamide]: the IC50 is 2050 nM.

In the case of `N#Cc1ccc(Oc2ccc3nc(C(=O)N[C@H]4CCC[C@H](O)C4)ccc3c2)cc1` [Example 132, 6-(4-cyanophenoxy)-N-[(1S,3S)-3-hydroxycyclohexyl]quinoline-2-carboxamide], the IC50 was found to be 2700 nM. On the same count and under the same terms, the result for `N#Cc1ccc(Oc2ccc3nc(C(=O)N[C@H]4CC[C@@H](O)CC4)ccc3c2)cc1` [Example 133, 6-(4-cyanophenoxy)-N-(cis-4-hydroxycyclohexyl)quinoline-2-carboxamide] reads 1170 nM.

Still in this experiment, the particulars now being: read-out: FRET-Membrane Potential Nav1.7 IC50.
For `N#Cc1ccc(Oc2ccc3nc(C(=O)NCc4ccccn4)ccc3c2)cc1` [Example 97, 6-(4-cyanophenoxy)-N-(pyridin-2-ylmethyl)quinoline-2-carboxamide], the IC50 is 842 nM. Turning to `N#Cc1ccc(Oc2ccc3nc(C(=O)Nc4ccc(Oc5ccccc5)cc4)ccc3c2)cc1` [Example 101, 6-(4-cyanophenoxy)-N-(4-phenoxyphenyl)quinoline-2-carboxamide], the IC50 was more than 20000 nM.

Regarding `N#Cc1ccc(Oc2ccc3nc(C(=O)N4CCc5ccccc54)ccc3c2)cc1` [Example 111, 4-{[2-(2,3-dihydro-1H-indol-1-ylcarbonyl)quinolin-6-yl]oxy}benzonitrile], the IC50 is more than 20000 nM. Consider `N#Cc1ccc(Oc2ccc3nc(C(=O)N4CCNCC4)ccc3c2)cc1` [Example 112, 4-{[2-(piperazin-1-ylcarbonyl)quinolin-6-yl]oxy}benzonitrile], for which the IC50 was 1480 nM. Consider `N#Cc1ccc(Oc2ccc3nc(C(=O)NC4CCOC4)ccc3c2)cc1` (centres unmarked) [Example 114, 6-(4-cyanophenoxy)-N-(tetrahydrofuran-3-yl)quinoline-2-carboxamide], for which the IC50 came to 560 nM. Consider `N#Cc1ccc(Oc2ccc3nc(C(=O)N[C@@H]4CCOC4)ccc3c2)cc1` [Example 117, 6-(4-cyanophenoxy)-N-[(3R)-tetrahydrofuran-3-yl]quinoline-2-carboxamide], for which the half-maximal inhibitory concentration (IC50) was found to be 2230 nM. The same measure, in the same setting: the same measure for `N#Cc1ccc(Oc2ccc3nc(C(=O)N[C@H]4CCOC4)ccc3c2)cc1` [Example 118, 6-(4-cyanophenoxy)-N-[(3S)-tetrahydrofuran-3-yl]quinoline-2-carboxamide]: 2270 nM; for `N#Cc1ccc(Oc2ccc3nc(C(=O)N[C@@H]4CCCC[C@@H]4O)ccc3c2)cc1` [Example 119, 6-(4-cyanophenoxy)-N-[(1R,2S)-2-hydroxycyclohexyl]quinoline-2-carboxamide]: 819 nM. Same read-out and setting: the result for `N#Cc1ccc(Oc2ccc3nc(C(=O)N[C@H]4CCCC[C@@H]4O)ccc3c2)cc1` [Example 120, 6-(4-cyanophenoxy)-N-[(1S,2S)-2-hydroxycyclohexyl]quinoline-2-carboxamide] reads 2040 nM; that for `N#Cc1ccc(Oc2ccc3nc(C(=O)N[C@H]4CCC[C@@H]4O)ccc3c2)cc1` [Example 121, 6-(4-cyanophenoxy)-N-[(1S,2S)-2-hydroxycyclopentyl]quinoline-2-carboxamide], 1660 nM. In the case of `N#Cc1ccc(Oc2ccc3nc(C(=O)NC4(CO)CC4)ccc3c2)cc1` [Example 123, 6-(4-cyanophenoxy)-N-[1-(hydroxymethyl)cyclopropyl]quinoline-2-carboxamide], the IC50 is 6550 nM. On the same count and under the same terms, the result for `CC(C)(CO)NC(=O)c1ccc2cc(Oc3ccc(C#N)cc3)ccc2n1` [Example 124, 6-(4-cyanophenoxy)-N-(1-hydroxy-2-methylpropan-2-yl)quinoline-2-carboxamide] reads 2140 nM.

`CC(CO)NC(=O)c1ccc2cc(Oc3ccc(C#N)cc3)ccc2n1` (centres unmarked) [Example 127, 6-(4-cyanophenoxy)-N-(1-hydroxypropan-2-yl)quinoline-2-carboxamide]: the IC50 amounted to 4070 nM. For `CC(O)CNC(=O)c1ccc2cc(Oc3ccc(C#N)cc3)ccc2n1` (centres unmarked) [Example 128, 6-(4-cyanophenoxy)-N-(2-hydroxypropyl)quinoline-2-carboxamide], the IC50 was determined as 2850 nM. On the same count and under the same terms, the same measure for `N#Cc1ccc(Oc2ccc3nc(C(=O)N[C@@H]4CCC[C@@H]4O)ccc3c2)cc1` [Example 131, 6-(4-cyanophenoxy)-N-[(1R,2S)-2-hydroxycyclopentyl]quinoline-2-carboxamide]: 1150 nM. Turning to `CC(O)C(C)NC(=O)c1ccc2cc(Oc3ccc(C#N)cc3)ccc2n1` (centres unmarked) [Example 134, 6-(4-cyanophenoxy)-N-(3-hydroxybutan-2-yl)quinoline-2-carboxamide], the IC50 stood at 2320 nM.
